Experimental data reported in ChEMBL document CHEMBL1158831, “Meroditerpenoids from a Formosan soft coral Nephthea chabrolii” (J Nat Prod, 2005).

Assays:
Assay type in all cases: functional, cell-based
HepG2 = assay: Cytotoxicity against human HepG2 cells after 6 days by MTT method; details: HepG2, 144 h
A549 = assay: Cytotoxicity against human A549 cells after 6 days by MTT method; details: A549, 144 h
MDA-MB-231 = assay: Cytotoxicity against human MDA-MB-231cells after 6 days by MTT method; details: MDA-MB-231, 144 h

Compound	IC50 (HepG2)	IC50 (A549)	IC50 (MDA-MB-231)
CC(C)=CCC/C(=C/CC/C(C)=C/CC/C(C)=C/CC1=CC(=O)C(C)=CC1=O)CO [CHABROLOBENZOQUINONE E]	> 48.8 µM	> 48.8 µM	> 48.8 µM
CC(=O)OC/C(=C\CC/C(C)=C/CC/C(C)=C/CC1=CC(=O)C(C)=CC1=O)CCC=C(C)C [CHABROLOBENZOQUINONE F]	38.1 µM	38.1 µM	33.2 µM
CC(=O)O[C@H](CC/C(C)=C/CC/C(C)=C/CC1=CC(=O)C(C)=CC1=O)[C@@](C)(O)CCC=C(C)C [CHABROLOBENZOQUINONE H]	> 42.5 µM	38 µM	31.4 µM
CC(C)=CCC/C(C)=C/CC/C(C)=C/CC[C@](C)(O)/C=C\c1cc(O)c(C)cc1O [CHABROLOHYDROXYBENZOQUINONE E]	> 48.5 µM	> 48.5 µM	> 48.5 µM
CC(C)=CCC/C(C)=C/[C@@H](O)C/C(C)=C/CC[C@](C)(O)/C=C\c1cc(O)c(C)cc1O [CHABROLOHYDROXYBENZOQUINONE F]	44.4 µM	42.3 µM	> 46.7 µM
CC(=O)O[C@H](CC/C(C)=C/CC[C@](C)(O)/C=C\c1cc(O)c(C)cc1O)[C@@](C)(O)CCC=C(C)C [CHABROLOHYDROXYBENZOQUINONE G]	18.4 µM	26.8 µM	18 µM
CC(=O)O[C@H](CC/C(C)=C/CCc1ccc2c(c1)C(=O)C(C)=CC2=O)[C@@](C)(O)CCC=C(C)C [CHABROLONAPHTHOQUINONE B]	12.4 µM	33.9 µM	4.7 µM
COc1cccc2c1C(=O)c1c(O)c3c(c(O)c1C2=O)C[C@@](O)(C(=O)CO)C[C@@H]3O[C@H]1C[C@H](N)[C@H](O)[C@H](C)O1 [DOXORUBICIN]	0.17 µM	0.17 µM	0.07 µM
